Test results as given in patent US20250381242A1 (INVAIO SCIENCES, INC., priority 2024, published 2025).
Positions of bridges follow the written chain, without caps; N, C: chain ends. Residues, ends and D or L forms follow the SMILES beside them. No end group written: not given here.

Columns and labels:
[1] = system: E. amylovora; conditions: 24 h, 10 μM
[2] = system: A. tumefaciens; conditions: 24 h, 10 μM
[3] = system: X. citri; experiment: Bacterial growth inhibition by OD600 absorbance, X. citri; assay type: cell-based, X. citri subsp. citri (ATCC 49118); conditions: peptide 10 μM, 24 hours at 30° C., OD 600 nm
Experimental: (§1) Antimicrobial activity of antimicrobial peptides was tested against the agricultural microbial pests A. tumefaciens, E. amylovora, E. coli, and X. citri, using OD absorbance measurement to detect bacterial growth.
(§2) Antimicrobial peptides were synthesized using solid phase peptide synthesis method and resuspended in 10% DMSO to a 1 mM stock concentration. The stock solution was aliquoted in cryovials and stored at −80° C.
(§3) An aliquot of 198 μl of the bacterial culture was added to each well in a 96-well plate and 2 μl of a 1 mM peptide stock solution was added to each well, for a final treatment concentration of 10 μM of a given peptide. Media only wells were included to control for contamination. The positive controls were 50 μg/ml oxytetracycline hydrochloride and 500 μg/ml streptomycin sulfate. A 0.1% DMSO treatment was included as a negative control.
(§4) An initial absorbance reading of the bacterial suspensions was taken at 600 nm. Then, the bacteria were grown in an incubator at 30° C. (A. tumefaciens, E. amylovora, X. citri) or 37° C. (E. coli) for 24 hours, after which the final absorbance reading was measured. Using the initial and final absorbance reading compared to negative and positive controls, the percent inhibition of the bacterial strain by given peptide treatment was determined.

[4] = system: E. coli; experiment: Bacterial growth inhibition by OD600 absorbance, E. coli; assay type: cell-based, E. coli (DH5-alpha); conditions: peptide 10 μM, 24 hours at 37° C., OD 600 nm
Experimental: as §1, §2, §3, §4

Compound | growth inhibition, E. amylovora [1] | growth inhibition, A. tumefaciens [2] | growth inhibition, X. citri [3] | growth inhibition, E. coli [4]
C[C@@H](O)[C@H](NC(=O)[C@H](CS)NC(=O)[C@@H](N)Cc1c[nH]c2ccccc12)C(=O)N[C@@H](Cc1c[nH]c2ccccc12)C(=O)N[C@@H](CCCCN)C(=O)NCC(=O)N[C@@H](CCC(N)=O)C(=O)N1CCC[C@H]1C(=O)N[C@@H](CS)C(=O)N[C@@H](Cc1c[nH]c2ccccc12)C(=O)O [compound 3] (H-WCTWKGQPCW-OH; N-terminus and C-terminus assumed) | <90% | <90% |  | 
CC[C@H](C)[C@H](NC(=O)[C@H](CO)NC(=O)[C@H](CC(N)=O)NC(=O)[C@H](CC(C)C)NC(=O)[C@H](Cc1ccc(O)cc1)NC(=O)[C@H](CCCCN)NC(=O)[C@H](CCCCN)NC(=O)[C@@H](NC(=O)[C@H](C)NC(=O)[C@H](CCSC)NC(=O)[C@H](CCC(N)=O)NC(=O)[C@H](CCCCN)NC(=O)[C@H](CCCNC(=N)N)NC(=O)[C@H](CC(C)C)NC(=O)[C@H](CCCNC(=N)N)NC(=O)[C@@H](NC(=O)[C@H](Cc1ccc(O)cc1)NC(=O)[C@H](CC(N)=O)NC(=O)[C@H](CC(=O)O)NC(=O)[C@@H](NC(=O)[C@H](Cc1ccccc1)NC(=O)[C@@H](NC(=O)[C@H](C)NC(=O)[C@H](CC(=O)O)NC(=O)[C@H](CO)NC(=O)[C@@H](N)Cc1c[nH]cn1)C(C)C)[C@@H](C)O)[C@@H](C)O)C(C)C)C(=O)N[C@@H](CC(C)C)C(=O)N[C@@H](CC(N)=O)C(=O)O [compound 12] | <90% | <90% | 93.86% | <90%
CC[C@H](C)[C@H](NC(=O)CNC(=O)[C@@H]1CCCN1C(=O)CNC(=O)[C@H](CC(C)C)NC(=O)[C@H](CC(N)=O)NC(=O)[C@H](C)NC(=O)[C@H](Cc1ccccc1)NC(=O)[C@H](CC(N)=O)NC(=O)[C@H](C)NC(=O)[C@H](CCCNC(=N)N)NC(=O)[C@H](Cc1ccccc1)NC(=O)[C@H](C)NC(=O)[C@@H](NC(=O)[C@H](CCCNC(=N)N)NC(=O)[C@H](Cc1c[nH]c2ccccc12)NC(=O)[C@H](Cc1ccc(O)cc1)NC(=O)[C@H](CC(=O)O)NC(=O)[C@H](C)NC(=O)[C@H](CC(C)C)NC(=O)CN)[C@@H](C)O)C(=O)N[C@@H](CCCNC(=N)N)C(=O)N[C@@H](CS)C(=O)N[C@@H](CCCCN)C(=O)N[C@@H](CO)C(=O)N[C@@H](C)C(=O)N[C@@H](CCCNC(=N)N)C(=O)N[C@@H](CS)C(=O)O [compound 18] (H-GLADYWRTAFRANFANLGPGIRCKSARC-OH; N-terminus and C-terminus assumed) | <90% | <90% |  | 
CC(C)C[C@H](NC(=O)[C@H](CCCCN)NC(=O)[C@H](C)NC(=O)[C@H](CC(C)C)NC(=O)[C@H](CCCCN)NC(=O)[C@H](CCCCN)NC(=O)[C@H](C)NC(=O)[C@H](CC(C)C)NC(=O)[C@H](CCCCN)NC(=O)[C@H](C)NC(=O)[C@H](CC(C)C)NC(=O)[C@H](CCCCN)NC(=O)[C@H](Cc1c[nH]cn1)NC(=O)[C@H](C)NC(=O)[C@@H](N)CC(=O)O)C(=O)N[C@@H](C)C(=O)N[C@@H](CCCCN)C(=O)O [compound 97] | <90% | <90% | <90% | <90%
AAKAWLKLWAKAA [compound 135] | <90% | <90% | <90% | <90%
AKLKAYPLKAKLYP [compound 114] | <90% | <90% | <90% | <90%
AKRLKKLAKKIWKWK [compound 92] | 99.93% | 99.87% | <90% | <90%
ALKSLLATLSKAKKKKLKTLLAALSK [compound 31] | 100.00% | 100.00% | 100.00% | <90%
ALKSLLKTLSKAKAAKLKTLLKALSK [compound 30] | 100.00% | 100.00% | 100.00% | 98.52%
ALWFTMLKKLGTMALHAGKAALGAAANTISQGTQ [compound 9] | 91.75% | 99.90% | 100.00% | <90%
ALWKKLLKKLLKSAKKLG [compound 77] | 100.00% | 100.00% | 100.00% | 100.00%
AMWKDVLKKIGTVALHAGKAALGAVADTISQ [compound 17] | <90% | 100.00% | 100.00% | <90%
DCLSGRYKGPCAVWDNETCRRVCKEEGRSSGHCSPSLKCWCEGC (disulfide 2-44, 11-33, 19-39, 23-41) [compound 145] | <90% | <90% |  | 
DLWNSIKDMAAAAGRAALNAVTGMVNQ [compound 29] | <90% | <90% | <90% | <90%
FAKKLAKKLKKLAKKLAK [compound 80] | 100.00% | 98.82% | <90% | <90%
FFHHIFRGIVHVGKTKHRLVTG [compound 37] | <90% | <90% | <90% | <90%
FFHHIKRGIKHVGKTIHRLVTG [compound 38] | 100.00% | <90% | 100.00% | <90%
FKKLKKLFKKILKLK [compound 95] | 100.00% | 99.80% | <90% | <90%
FKKLKKLFSKLWNWK [compound 84] | 100.00% | 100.00% | <90% | 96.39%
FKVQNQHGQVVKIFHH [compound 89] | <90% | <90% | <90% | <90%
FPFLKLSLKIPKSAIKSAIKRL [compound 1] | <90% | <90% | <90% | <90%
FQWQRNMRKVR [compound 124] | <90% | <90% | <90% | <90%
FRIRVRVAKKFGKAFVGEIM [compound 64] | <90% | <90% | <90% | <90%
GFWGKLWKPVKKAI [compound 107] | <90% | <90% | <90% | <90%
GIKFFLKKLKKHI [compound 115] | <90% | <90% | 100.00% | <90%
GLWSKIKEVGKEAAKAAAKAAGKAALGAVSEAV [compound 16] | 100.00% | 100.00% | 100.00% | 100.00%
